From patent publication US9266842B2, “Anti-malarial agents” (UNIVERSITY OF CAPE TOWN, priority 2012, dated 2016)
Values after ≈ are worked out from the molar mass of the structure shown.

Tests used:
[1] = tested on: P. falciparum NF54; assay: Anti-malarial in vitro efficacy, assay 1, P. falciparum NF54; format: cell-based; details: Plasmodium falciparum, strain NF54
Protocol: (§1) The ability of aminopyrazine derivatives according to the invention to kill P. falciparum parasites and/or to inhibit its proliferation is tested as follows:
(§2) The protocol used was as described in the supplemental material to Fiddock et al., 2004, Nature Reviews Drug Discovery, (3), p 509.
(§3) EC50s (ng/ml) are reported in Table 3 below against different strains of P. falciparum K1, NF54 (assay 1).

[2] = tested on: P. falciparum K1; assay: Anti-malarial in vitro efficacy, assay 1, P. falciparum K1; format: cell-based; details: Plasmodium falciparum, strain K1
Protocol: as §1, §2, §3

[3] = tested on: parasitemia; assay: Anti-malarial in vivo efficacy, inhibition of parasitemia after 4 daily oral doses; details: for inhibition in vivo at 3 mg/kg: read-out: percentages of inhibition of parasitemia, 3 mg/kg po; for inhibition in vivo at 10 mg/kg: read-out: percentages of inhibition of parasitemia, 10 mg/kg po
Description: The ability of aminopyrazine derivatives according to the invention to show antimalarial efficacy in vivo can be tested by using the protocols described in the supplemental material to Fidock et al., 2004, Nature Reviews Drug Discovery, (3), p 509.

Row | SMILES | EC50 [1] [ng/mL] | EC50 [2] [ng/mL] | inhibition in vivo at 3 mg/kg [3] [%] | inhibition in vivo at 10 mg/kg [3] [%]
1 | NC(=O)c1ccc(-c2cnc(N)c(-c3ccc(C(N)=O)cc3)n2)cc1 [Compound 15, 4,4′-(3-aminopyrazine-2,6-diyl) dibenzamide] | 8.5 (≈ 25.5 nM) | 7.1 (≈ 21.3 nM) |  | 
2 | NC(=O)c1ccc(-c2cnc(N)c(-c3ccc(C(F)(F)F)c(F)c3)n2)cc1 [Compound 13, 4-(5-amino-6-(3-fluoro-4-(trifluoro-methyl)phenyl)pyrazin-2-yl) benzamide] | 18 (≈ 47.8 nM) | 18 (≈ 47.8 nM) | 99.9 | 99.9
3 | Nc1ncc(-c2ccc(C(=O)N3CCOCC3)cc2)nc1-c1ccc(C(F)(F)F)cc1 [Compound 11, (4-(5-amino-6-(4-(trifluoromethyl)phenyl)pyrazin-2-yl)phenyl)(morpholino)methanone] |  | 3.1 (≈ 7.24 nM) |  | 
4 | Nc1ncc(-c2ccc(C(=O)N3CCCNCC3)cc2)nc1-c1ccc(C(F)(F)F)cc1 [Compound 27, (4-(5-amino-6-(4-(trifluoromethyl)phenyl)pyrazin-2-yl)phenyl)(1,4-diazepan-1-yl)methanone] | 3.2 (≈ 7.25 nM) | 2.2 (≈ 4.98 nM) | 88 | 
5 | Nc1ncc(-c2ccc(C(=O)N3CCNCC3)cc2)nc1-c1ccc(C(F)(F)F)cc1 [Compound 8, (4-(5-amino-6-(4-(trifluoromethyl)phenyl)pyrazin-2-yl)phenyl)(piperazin-1-yl)methanone] | 2.3 (≈ 5.38 nM) | 2.1 (≈ 4.91 nM) | 99.9 | 99.9
6 | COc1ccc(-c2nc(-c3ccc(S(C)(=O)=O)cc3)cnc2N)cn1 [Compound 1, 3-(6-methoxypyridin-3-yl)-5-(4-(methylsulfonyl)phenyl)pyrazin-2-amine] |  | 17 (≈ 47.7 nM) |  | 
7 | NC(=O)c1ccc(-c2cnc(N)c(-c3ccc(C(F)(F)F)nc3)n2)cc1 [Compound 5, 4-(5-amino-6-(6-(trifluoromethyl)pyridin-3-yl)pyrazin-2-yl)benzamide] | 7.8 (≈ 21.7 nM) | 5.8 (≈ 16.1 nM) | 99.4 | 99.9
8 | CS(=O)(=O)c1ccc(-c2cnc(N)c(-c3ccc(C(F)(F)F)cc3)n2)cc1 [Compound 2, 5-(4-(methylsulfonyl)phenyl)-3-(4-(trifluoromethyl)phenyl)pyrazin-2-amine] |  | 4 (≈ 10.2 nM) |  | 
9 | CC(C)(C)N1CCN(C(=O)c2ccc(-c3cnc(N)c(-c4ccc(C(F)(F)F)cc4)n3)cc2)CC1 [Compound 20, (4-(5-amino-6-(4-(trifluoromethyl)phenyl)pyrazin-2-yl)phenyl)(4-tert-butylpiperazin-1-yl)methanone] | 8.2 (≈ 17 nM) | 5.5 (≈ 11.4 nM) |  | 
10 | Nc1ncc(-c2ccc(C(=O)N3CCC(N)CC3)cc2)nc1-c1ccc(C(F)(F)F)cc1 [Compound 32, (4-(5-amino-6-(4-(trifluoromethyl)phenyl)pyrazin-2-yl)phenyl)(4-aminopiperidinyl)methanone] | 4.3 (≈ 9.74 nM) | 2.9 (≈ 6.57 nM) |  | 
11 | Nc1ncc(-c2ccc(S(=O)(=O)C3CC3)cc2)nc1-c1ccc(C(F)(F)F)nc1 [Compound 34, 5-(4-(cyclopropylsulfonyl)phenyl)-3-(6-(trifluoromethyl)pyridin-3-yl) pyrazin-2-amine] |  | 4 (≈ 9.51 nM) |  | 
12 | Nc1ncc(-c2ccc(C(=O)N3CCC(O)CC3)cc2)nc1-c1ccc(C(F)(F)F)cc1 [Compound 23, (4-(5-amino-6-(4-(trifluoromethyl)phenyl)pyrazin-2-yl)phenyl)(4-hydroxypiperidin-1-yl)methanone] | 2.4 (≈ 5.42 nM) | 2.2 (≈ 4.97 nM) | 98.7 | 
13 | Nc1ncc(-c2ccc(C(=O)N3CC[C@@H](O)C3)cc2)nc1-c1ccc(C(F)(F)F)cc1 [Compound 35, (R)-(4-(5-amino-6-(4-(trifluoro-methyl)phenyl)pyrazin-2-yl)phenyl)(3-hydroxypyrrolidin-1-yl) methanone] | 3.2 (≈ 7.47 nM) |  | 99.9 | 99.9
14 | Nc1ncc(-c2ccc(C(=O)N3CC[C@H](O)C3)cc2)nc1-c1ccc(C(F)(F)F)cc1 [Compound 36, (S)-(4-(5-amino-6-(4-(trifluoro-methyl)phenyl)pyrazin-2-yl)phenyl)(3-hydroxypyrrolidin-1-yl)methanone] | 2.6 (≈ 6.07 nM) |  | 99.9 | 99.9
15 | NC(=O)c1ccc(-c2cnc(N)c(-c3ccc(C(F)(F)F)cc3)n2)cc1 [Compound 4, 4-(5-amino-6-(4-(trifluoromethyl)phenyl)pyrazin-2-yl)benzamide] | 5.7 (≈ 15.9 nM) | 4.9 (≈ 13.7 nM) | 99.9 | 99.9
16 | Nc1ncc(-c2ccc(C(=O)N3CCC(N)C3)cc2)nc1-c1ccc(C(F)(F)F)cc1 (centres unmarked) [Compound 29, (4-(5-amino-6-(4-(trifluoromethyl)phenyl)pyrazin-2-yl)phenyl)(3-aminopyrrolidin-1-yl)methanone] | 8.8 (≈ 20.6 nM) | 4.8 (≈ 11.2 nM) |  | 
17 | CS(=O)(=O)c1ccc(-c2cnc(N)c(-c3ccc(C(F)(F)F)nc3)n2)cc1 [Compound 3, 5-(4-(methylsulfonyl)phenyl)-3-(6-(trifluoromethyl)pyridin-3-yl)pyrazin-2-amine] |  | 4.8 (≈ 12.2 nM) |  | 
18 | Nc1ncc(-c2ccc(C(=O)N3CCC(O)C3)cc2)nc1-c1ccc(C(F)(F)F)cc1 (centres unmarked) [Compound 21, (4-(5-amino-6-(4-(trifluoromethyl)phenyl)pyrazin-2-yl)phenyl)(3-hydroxypyrrolidin-1-yl)methanone] | 4.1 (≈ 9.57 nM) | 2.9 (≈ 6.77 nM) | 99.6 | 

Now from value to compound, other results behind:

Row | EC50 [1] [ng/mL] | EC50 [2] [ng/mL] | SMILES | inhibition in vivo at 3 mg/kg [3] [%] | inhibition in vivo at 10 mg/kg [3] [%]
19 | 4.3 (≈ 8.87 nM) | 3.1 (≈ 6.4 nM) | CC(C)(C)N1CCN(C(=O)c2ccc(-c3cnc(N)c(-c4ccc(C(F)(F)F)nc4)n3)cc2)CC1 [Compound 24, (4-(5-amino-6-(6-(trifluoromethyl)pyridin-3-yl)pyrazin-2-yl)phenyl)(4-(tert-butyl)piperazin-1-yl)methanone] | 87.6 | 
20 | 3.5 (≈ 7.93 nM) | 3 (≈ 6.8 nM) | CN1CCN(C(=O)c2ccc(-c3cnc(N)c(-c4ccc(C(F)(F)F)cc4)n3)cc2)CC1 [Compound 6, (4-(5-amino-6-(4-(trifluoromethyl)phenyl)pyrazin-2-yl)phenyl)(4-methylpiperazin-1-yl) methanone] | 99.9 | 99.9
21 | 5.9 (≈ 13.3 nM) | 4.3 (≈ 9.72 nM) | Nc1ncc(-c2ccc(C(=O)N3CCCNCC3)cc2)nc1-c1ccc(C(F)(F)F)nc1 [Compound 26, (4-(5-amino-6-(6-(trifluoromethyl)pyridin-3-yl)pyrazin-2-yl)phenyl) (1,4-diazepan-1-yl)methanone] |  | 
22 | 8.6 (≈ 20 nM) | 5.2 (≈ 12.1 nM) | Nc1ncc(-c2ccc(C(=O)N3CCC(O)C3)cc2)nc1-c1ccc(C(F)(F)F)nc1 (centres unmarked) [Compound 30, (4-(5-amino-6-(6-(trifluoromethyl)pyridin-3-yl)pyrazin-2-yl)phenyl)(3-hydroxypyrrolidin-1-yl)methanone] |  | 
23 | 4.6 (≈ 10.7 nM) | 4 (≈ 9.34 nM) | Nc1ncc(-c2ccc(C(=O)N3CCNCC3)cc2)nc1-c1ccc(C(F)(F)F)nc1 [Compound 9, (4-(5-amino-6-(6-(trifluoromethyl)pyridin-3-yl)pyrazin-2-yl)phenyl)(piperazin-1-yl) methanone] |  | 
24 | 17 (≈ 39.7 nM) | 10 (≈ 23.3 nM) | Nc1ncc(-c2ccc(C(=O)N3CCC(N)C3)cc2)nc1-c1ccc(C(F)(F)F)nc1 (centres unmarked) [Compound 28, (4-(5-amino-6-(6-(trifluoromethyl)pyridin-3-yl)pyrazin-2-yl)phenyl)(3-aminopyrrolidin-1-yl)methanone] |  | 
25 | 4.4 (≈ 9.94 nM) | 4.4 (≈ 9.94 nM) | CN1CCN(C(=O)c2ccc(-c3cnc(N)c(-c4ccc(C(F)(F)F)nc4)n3)cc2)CC1 [Compound 7, (4-(5-amino-6-(6-(trifluoromethyl)pyridin-3-yl)pyrazin-2-yl)phenyl)(4-methylpiperazin-1-yl)methanone] | 81 | 99.8
26 | 3.1 (≈ 6.81 nM) | 2.6 (≈ 5.71 nM) | CN1CCCN(C(=O)c2ccc(-c3cnc(N)c(-c4ccc(C(F)(F)F)cc4)n3)cc2)CC1 [Compound 25, (4-(5-amino-6-(4-(trifluoromethyl)phenyl)pyrazin-2-yl)phenyl)(4-methyl-1,4-diazepan-1-yl)methanone] | 90 | 
27 | 6.9 (≈ 15.1 nM) | 4.5 (≈ 9.86 nM) | CN1CCCN(C(=O)c2ccc(-c3cnc(N)c(-c4ccc(C(F)(F)F)nc4)n3)cc2)CC1 [Compound 12, (4-(5-amino-6-(6-(trifluoromethyl)pyridin-3-yl)pyrazin-2-yl)phenyl)(4-methyl-1,4-diazepan-1-yl)methanone] | 99.9 | 
28 |  | 4.1 (≈ 9.55 nM) | Nc1ncc(-c2ccc(C(=O)N3CCOCC3)cc2)nc1-c1ccc(C(F)(F)F)nc1 [Compound 10, (4-(5-amino-6-(6-(trifluoromethyl)pyridin-3-yl)pyrazin-2-yl)phenyl) (morpholino) methanone] |  | 
29 | 4.5 (≈ 10.1 nM) | 4 (≈ 9.02 nM) | Nc1ncc(-c2ccc(C(=O)N3CCC(O)CC3)cc2)nc1-c1ccc(C(F)(F)F)nc1 [Compound 22, (4-(5-amino-6-(6-(trifluoromethyl)pyridin-3-yl)pyrazin-2-yl)phenyl)(4-hydroxypiperidin-1-yl)methanone] |  | 
30 | 8.5 (≈ 19.2 nM) | 7.6 (≈ 17.2 nM) | Nc1ncc(-c2ccc(C(=O)N3CCC(N)CC3)cc2)nc1-c1ccc(C(F)(F)F)nc1 [Compound 31, (4-(5-amino-6-(6-(trifluoromethyl)pyridin-3-yl)pyrazin-2-yl)phenyl)(4-aminopiperidinyl)methanone] |  | 
